{"source": "BindingDB's records for doi:10.1016/s0960-894x(03)00663-2", "about": "(Universidad De Buenos Aires, 2003)", "key": {"[1]": {"molecular_target": "Farnesyl pyrophosphate synthase (Trypanosoma cruzi)", "assay": "Inhibition of Trypanosoma cruzi farnesyl pyrophosphate synthase"}, "[2]": {"assay": "Binding affinity towards Trypanosoma cruzi farnesyl pyrophosphate synthase (TcFPPS)"}, "[3]": {"molecular_target": "Farnesyl pyrophosphate synthase (Trypanosoma cruzi)", "assay": "Binding affinity towards Trypanosoma cruzi farnesyl pyrophosphate synthase (TcFPPS)"}, "[4]": {"assay": "Binding affinity towards Trypanosoma cruzi farnesyl pyrophosphate synthase (TcFPPS)", "remark": "listed apart in the source"}}}
{"compound": "CCCC(P(=O)(O)O)P(=O)(O)O", "note": "[(1-Phosphono-butyl)-phosphonic acid]", "values": [{"measurement": "IC50", "setting": "[1]", "value": 150, "unit": "µM"}, {"measurement": "Ki", "setting": "[2]", "value": 17, "unit": "µM"}]}
{"compound": "CCCCCCC(P(=O)(O)O)P(=O)(O)O", "note": "[(1-Phosphono-heptyl)-phosphonic acid]", "values": [{"measurement": "IC50", "setting": "[1]", "value": 4.54, "unit": "µM"}, {"measurement": "Ki", "setting": "[3]", "value": 0.54, "unit": "µM"}]}
{"compound": "CCCCCC(P(=O)(O)O)P(=O)(O)O", "note": "[(1-Phosphono-hexyl)-phosphonic acid]", "values": [{"measurement": "Ki", "setting": "[4]", "value": 0.47, "unit": "µM"}, {"measurement": "IC50", "setting": "[1]", "value": 5.67, "unit": "µM"}]}
{"compound": "CCCCCCCCC(P(=O)(O)O)P(=O)(O)O", "note": "[(1-Phosphono-nonyl)-phosphonic acid]", "values": [{"measurement": "IC50", "setting": "[1]", "value": 4.25, "unit": "µM"}, {"measurement": "Ki", "setting": "[3]", "value": 0.31, "unit": "µM"}]}
{"compound": "CCCCCCCC(P(=O)(O)O)P(=O)(O)O", "note": "[(1-Phosphono-octyl)-phosphonic acid]", "values": [{"measurement": "IC50", "setting": "[1]", "value": 19.7, "unit": "µM"}, {"measurement": "Ki", "setting": "[3]", "value": 1.88, "unit": "µM"}]}
{"compound": "CCCCC(P(=O)(O)O)P(=O)(O)O", "note": "[(1-Phosphono-pentyl)-phosphonic acid]", "values": [{"measurement": "IC50", "setting": "[1]", "value": 5.71, "unit": "µM"}, {"measurement": "Ki", "setting": "[2]", "value": 0.79, "unit": "µM"}]}
{"compound": "CCC(P(=O)(O)O)P(=O)(O)O", "note": "[(1-Phosphono-propyl)-phosphonic acid]", "values": [{"measurement": "IC50", "setting": "[1]", "value": "> 100", "unit": "µM"}]}
